Earlier results, collected in US20100135914A1, “AZEOTROPIC FUMIGANT COMPOSITIONS AND METHODS OF CONTROLLING PESTS” (priority 2008, published 2010).

Tests used:
[1] = system: eggs of many moths and beetles; conditions: exposures of up to three days
[2] = system: post-embryonic stages of insects; conditions: in vivo

Row | SMILES | dosage level toxic to maize weevil eggs (maize weevil; eggs, over 6 hours) [mg/L] | toxicity to life stages of the maize weevil (maize weevil; relatively short exposure periods and low temperatures) | concentration for complete kill of the egg stage [1] | toxicity to post-embryonic stages of insects [2]
1 | CI [Methyl iodide] | 2.16 | toxic to all life stages |  | 
2 | O=S(=O)(F)F [Sulfuryl fluoride] |  |  | over 50 mg/L | highly toxic
